Measurements: patent publication US12384776B2, “Compounds and uses thereof” (Foghorn Therapeutics Inc., priority 2019, dated 2025)

Biological target: Nanoluciferase-BRD9 fusion protein (3×FLAG-NLuc-BRD9) in SYO-1 cells (Homo sapiens (Human), UniProt Q9H8M2)
Experiment: SYO1 BRD9 NanoLuc degradation assay
Type: cell-based
Method: Procedure: A stable SYO-1 cell line expressing 3×FLAG-NLuc-BRD9 was generated. On day 0 cells were seeded in 30 μL media into each well of 384-well cell culture plates. The seeding density was 8000 cells/well. On day 1, cells were treated with 30 nL DMSO or 30 nL of 3-fold serially DMSO-diluted compounds (10 points in duplicates with 1 μM as final top dose). Subsequently plates were incubated for 6 hours in a standard tissue culture incubator and equilibrated at room temperature for 15 minutes. Nanoluciferase activity was measured by adding 15 μL of freshly prepared Nano-Glo Luciferase Assay Reagent (Promega N1130), shaking the plates for 10 minutes and reading the bioluminescence using an EnVision reader.
Results: The Inhibition % was calculated using the following formula: % Inhibition=100×(LumHC−LumSample)/(LumHC−LumLC). DMSO treated cells are employed as High Control (HC) and 1 μM of a known BRD9 degrader standard treated cells are employed as Low Control (LC).

[1] = SYO-1 cells expressing 3×FLAG-NLuc-BRD9, 6 hours incubation, top dose 1 μM

Chain of Nanoluciferase-BRD9 fusion protein (3×FLAG-NLuc-BRD9) in SYO-1 cells (Q9H8M2 whole entry, the tested form may be a part): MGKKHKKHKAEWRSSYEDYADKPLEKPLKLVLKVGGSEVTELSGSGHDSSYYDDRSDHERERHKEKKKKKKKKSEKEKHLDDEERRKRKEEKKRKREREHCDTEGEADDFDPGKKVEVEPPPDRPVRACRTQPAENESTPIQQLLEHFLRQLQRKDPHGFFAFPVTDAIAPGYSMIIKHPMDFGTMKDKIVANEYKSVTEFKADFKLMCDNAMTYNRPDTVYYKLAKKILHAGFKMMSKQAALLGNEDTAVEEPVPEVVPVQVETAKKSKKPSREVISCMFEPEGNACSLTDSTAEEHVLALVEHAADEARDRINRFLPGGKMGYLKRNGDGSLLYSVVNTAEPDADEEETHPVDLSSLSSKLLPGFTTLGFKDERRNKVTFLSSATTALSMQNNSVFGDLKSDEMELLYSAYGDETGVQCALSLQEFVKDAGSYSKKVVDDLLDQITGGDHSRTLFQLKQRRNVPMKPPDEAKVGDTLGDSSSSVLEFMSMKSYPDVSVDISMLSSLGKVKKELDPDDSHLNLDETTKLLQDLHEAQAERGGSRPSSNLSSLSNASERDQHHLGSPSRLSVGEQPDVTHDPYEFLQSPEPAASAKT

Compound	IC50 (SYO-1 cells, 6 hours, Table 6A) [nM]	IC50 [1] [nM]
COc1cc(-c2cn(C)c(=O)c3c2CCN(C(=O)NCCN(C)CCNC(=O)COc2cccc4c2C(=O)N(C2CCC(=O)NC2=O)C4=O)C3)cc(OC)c1CN(C)C (centres unmarked) [Compound D8, N-(2-[[2-(5-[4-[(dimethylamino)methyl]-3,5-dimethoxyphenyl]-7-methyl-8-oxo-3,4-dihydro-1H-2,7-naphthyridine-2-carbonylamino)ethyl](methyl)amino]ethyl)-2-[[2-(2,6-dioxopiperidin-3-yl)-1,3-dioxoisoindol-4-yl]oxy]acetamide formic acid]	> 100	
COc1cc(-c2cn(C)c(=O)c3c2CCN(C(=O)NCCCCCCCCNc2ccc4c(c2)C(=O)N(C2CCC(=O)NC2=O)C4=O)C3)cc(OC)c1CN(C)C (centres unmarked) [Compound D9, 5-(4-((dimethylamino)methyl)-3,5-dimethoxyphenyl)-N-(8-((2-(2,6-dioxopiperidin-3-yl)-1,3-dioxoisoindolin-5-yl)amino)octyl)-7-methyl-8-oxo-3,4,7,8-tetrahydro-2,7-naphthyridine-2 (1H)-carboxamide formic acid]	< 10	
COc1cc(-c2cn(C)c(=O)c3c2CCN(C(=O)NCCCCCCCCNC(=O)COc2cccc4c2C(=O)N(C2CCC(=O)NC2=O)C4=O)C3)cc(OC)c1CN(C)C (centres unmarked) [Compound D10, 5-(4-((dimethylamino)methyl)-3,5-dimethoxyphenyl)-N-(8-(2-((2-(2,6-dioxopiperidin-3-yl)-1,3-dioxoisoindolin-4-yl)oxy)acetamido)octyl)-7-methyl-8-oxo-3,4,7,8-tetrahydro-2,7-naphthyridine-2 (1H)-carboxamide formic acid]	> 100	
COc1cc(-c2cn(C)c(=O)c3c2CCN(C(=O)NCCCCCNc2cccc4c2C(=O)N(C2CCC(=O)NC2=O)C4=O)C3)cc(OC)c1CN(C)C (centres unmarked) [Compound D11, 5-(4-((dimethylamino)methyl)-3,5-dimethoxyphenyl)-N-(5-((2-(2,6-dioxopiperidin-3-yl)-1,3-dioxoisoindolin-4-yl)amino)pentyl)-7-methyl-8-oxo-3,4,7,8-tetrahydro-2,7-naphthyridine-2 (1H)-carboxamide formic acid]	> 10	
CNC(=O)N1CCc2c(-c3cc(OC)c(CN(C)CC(=O)NCCOCCOc4cccc5c4C(=O)N(C4CCC(=O)NC4=O)C5=O)c(OC)c3)cn(C)c(=O)c2C1 (centres unmarked) [Compound D13, 5-(4-[[([[2-(2-[[2-(2,6-dioxopiperidin-3-yl)-1,3-dioxoisoindol-4-yl]oxy]ethoxy)ethyl]carbamoyl]methyl)(methyl)amino]methyl]-3,5-dimethoxyphenyl)-N,7-dimethyl-8-oxo-3,4-dihydro-1H-2,7-naphthyridine-2-carboxamide]	> 1000	
CNC(=O)N1CCc2c(-c3cc(OC)c(CN4CC(NC(=O)CCCCCOc5cccc6c5C(=O)N(C5CCC(=O)NC5=O)C6=O)C4)c(OC)c3)cn(C)c(=O)c2C1 (centres unmarked) [Compound D16, 5-(4-[[3-(6-[[2-(2,6-dioxopiperidin-3-yl)-1,3-dioxoisoindol-4-yl]oxy]hexanamido)azetidin-1-yl]methyl]-3,5-dimethoxyphenyl)-N,7-dimethyl-8-oxo-3,4-dihydro-1H-2,7-naphthyridine-2-carboxamide formic acid]	> 10	
CNC(=O)N1CCc2c(-c3cc(OC)c(CN(C)C(=O)CCCCCOc4cccc5c4C(=O)N(C4CCC(=O)NC4=O)C5=O)c(OC)c3)cn(C)c(=O)c2C1 (centres unmarked) [Compound D25, 5-[4-[(6-[[2-(2,6-dioxopiperidin-3-yl)-1,3-dioxoisoindol-4-yl]oxy]-N-methylhexanamido)methyl]-3,5-dimethoxyphenyl]-N,7-dimethyl-8-oxo-3,4-dihydro-1H-2,7-naphthyridine-2-carboxamide]	< 10	
CNC(=O)N1CCc2c(-c3cc(OC)c(CN4CCC(CCN5CCN(c6cc7c(c(OC)c6)C(=O)N(C6CCC(=O)NC6=O)C7)CC5)CC4)c(OC)c3)cn(C)c(=O)c2C1 (centres unmarked) [Compound D50]		10 to 100
CNC(=O)N1CCc2c(-c3cc(OC)c(CN4CC(N(C)c5ccc6c(c5)C(=O)N(C5CCC(=O)NC5=O)C6)C4)c(OC)c3)cn(C)c(=O)c2C1 (centres unmarked) [Compound D53]		10 to 100
CNC(=O)N1CCc2c(-c3cc(OC)c(CN4CCC(CCN5CCN(c6ccc7c(c6)C6(CC6)N(C6CCC(=O)NC6=O)C7=O)CC5)CC4)c(OC)c3)cn(C)c(=O)c2C1 (centres unmarked) [Compound D54]		≥ 1000
CNC(=O)N1CCc2c(-c3cc(OC)c(CN4CCC(CCN5CCN(c6ccc7nn(C8CCC(=O)NC8=O)c(=O)n7c6)CC5)CC4)c(OC)c3)cn(C)c(=O)c2C1 (centres unmarked) [Compound D57]		10 to 100
CNC(=O)N1CCc2c(-c3cc(OC)c(C(C)N4CC(CN5CCC6(CC5)CN(c5ccc7c(c5)C(=O)N(C5CCC(=O)NC5=O)C7)C6)C4)c(OC)c3)cn(C)c(=O)c2C1 (centres unmarked) [Compound D59]		10 to 100
CNC(=O)N1CCc2c(-c3cc(OC)c(CN4CCN(c5cnn(C6CCC(=O)NC6=O)c5)CC4)c(OC)c3)cn(C)c(=O)c2C1 (centres unmarked) [Compound D60]		100 to 1000
CNC(=O)N1CCc2c(-c3cc(OC)c(CN4CCN(c5ccn6c(=O)n(C7CCC(=O)NC7=O)nc6c5)CC4)c(OC)c3)cn(C)c(=O)c2C1 (centres unmarked) [Compound D61]		100 to 1000
CNC(=O)N1CCc2c(-c3cc(OC)c(CN4CCN(c5nn(C6CCC(=O)NC6=O)c(=O)n5C)CC4)c(OC)c3)cn(C)c(=O)c2C1 (centres unmarked) [Compound D62]		≥ 1000
CNC(=S)N1CCc2c(-c3cc(OC)c(CN4CCC(CCN5CCN(c6ccc7c(c6)C(=O)N(C6CCC(=O)NC6=O)C7=O)CC5)CC4)c(OC)c3)cn(C)c(=O)c2C1 (centres unmarked) [Compound D63]		< 10
COC(=O)N1CCc2c(-c3cc(OC)c(CN4CCC(CCN5CCN(c6ccc7c(c6)C(=O)N(C6CCC(=O)NC6=O)C7=O)CC5)CC4)c(OC)c3)cn(C)c(=O)c2C1 (centres unmarked) [Compound D64]		< 10
CNC(=O)N1CCc2c(-c3cc(OC)c(CN4CCC(CCN5CCN(c6ccc7nc(C)n(C8CCC(=O)NC8=O)c(=O)c7c6)CC5)CC4)c(OC)c3)cn(C)c(=O)c2C1 (centres unmarked) [Compound D65]		100 to 1000
COc1cc(-c2cn(C)c(=O)c3c2OCCN3)cc(OC)c1CN1CC(CN2CCC3(CC2)CN(c2ccc4c(c2)C(=O)N(C2CCC(=O)NC2=O)C4)C3)C1 (centres unmarked) [Compound D66]		< 10

Continued, values first:

IC50 (SYO-1 cells, 6 hours, Table 6A) [nM]	IC50 [1] [nM]	Compound
	< 10	CNC(=O)N1CCc2c(-c3cc(OC)c(CN4CCN(CC5CCN(c6ccc7c(c6)CN(C6CCC(=O)NC6=O)C7=O)CC5)CC4)c(OC)c3)cn(C)c(=O)c2C1 (centres unmarked) [Compound D39]
	< 10	CNC(=O)N1CCc2c(-c3cc(OC)c(CN4CCN(CC5CCN(c6ccc7c(c6)C(=O)N(C6CCC(=O)NC6=O)C7)CC5)CC4)c(OC)c3)cn(C)c(=O)c2C1 (centres unmarked) [Compound D40]
	< 10	CNC(=O)N1Cc2c(c(-c3cc(OC)c(CN4CCN(CCC5CCN(c6ccc7c(c6)C(=O)N(C6CCC(=O)NC6=O)C7=O)CC5)CC4)c(OC)c3)cn(C)c2=O)CC1C (centres unmarked) [Compound D41]
	< 10	CNC(=O)N1CCc2c(-c3cc(OC)c(CN4C[C@@H](C)N(CCC5CCN(c6ccc7c(c6)C(=O)N(C6CCC(=O)NC6=O)C7=O)CC5)[C@@H](C)C4)c(OC)c3)cn(C)c(=O)c2C1 (some centres unmarked) [Compound D42]
	< 10	COCCNC(=O)N1CCc2c(-c3cc(OC)c(CN4CCN(CCC5CCN(c6ccc7c(c6)C(=O)N(C6CCC(=O)NC6=O)C7=O)CC5)CC4)c(OC)c3)cn(C)c(=O)c2C1 (centres unmarked) [Compound D43]
	< 10	[2H]C([2H])([2H])n1cc(-c2cc(OC)c(CN3CCC(CN4CCC5(CC4)CC(Oc4ccc6c(c4)C(=O)N(C4CCC(=O)NC4=O)C6=O)C5)CC3)c(OC)c2)c2c(c1=O)CN(C(=O)NC)CC2 (centres unmarked) [Compound D44]
	< 10	[2H]C([2H])([2H])n1cc(-c2cc(OC)c(CN3CCN(CCC4CCN(c5ccc6c(c5)C(=O)N(C5CCC(=O)NC5=O)C6=O)CC4)CC3)c(OC)c2)c2c(c1=O)CN(C(=O)NC)CC2 (centres unmarked) [Compound D45]
	< 10	COc1cc(-c2cn(C)c(=O)c3c2CCN(C(=O)NCC(F)F)C3)cc(OC)c1CN1CCN(CCC2CCN(c3ccc4c(c3)C(=O)N(C3CCC(=O)NC3=O)C4=O)CC2)CC1 (centres unmarked) [Compound D46]
	< 10	[2H]C([2H])([2H])NC(=O)N1CCc2c(-c3cc(OC)c(CN4CCC(CN5CCC6(CC5)CC(Oc5ccc7c(c5)C(=O)N(C5CCC(=O)NC5=O)C7=O)C6)CC4)c(OC)c3)cn(C)c(=O)c2C1 (centres unmarked) [Compound D47]
	< 10	[2H]C([2H])([2H])NC(=O)N1CCc2c(-c3cc(OC)c(CN4CCN(CCC5CCN(c6ccc7c(c6)C(=O)N(C6CCC(=O)NC6=O)C7=O)CC5)CC4)c(OC)c3)cn(C)c(=O)c2C1 (centres unmarked) [Compound D48]
	< 10	CNC(=O)N1CCc2c(-c3cc(OC)c(CN4CCC(CCN5CCN(c6ccc7c(c6OC)CN(C6CCC(=O)NC6=O)C7=O)CC5)CC4)c(OC)c3)cn(C)c(=O)c2C1 (centres unmarked) [Compound D49]
	< 10	CNC(=O)N1CCc2c(-c3cc(OC)c(CN4CC(C(C)N5CCC6(CC5)CN(c5ccc7c(c5)CN(C5CCC(=O)NC5=O)C7)C6)C4)c(OC)c3)cn(C)c(=O)c2C1 (centres unmarked) [Compound D51]
	< 10	CNC(=O)N1CCc2c(-c3cc(OC)c(CN4CC(C(C)N5CCC6(CC5)CN(c5ccc7c(c5)C(=O)N(C5CCC(=O)NC5=O)C7)C6)C4)c(OC)c3)cn(C)c(=O)c2C1 (centres unmarked) [Compound D52]
	< 10	CNC(=O)N1CCc2c(-c3cc(Cl)c(CN4CCN(CCC5CCN(c6ccc7c(c6)CN(C6CCC(=O)NC6=O)C7=O)CC5)CC4)c(OC)c3)cn(C)c(=O)c2C1 (centres unmarked) [Compound D55]
	< 10	CNC(=O)N1CCc2c(-c3cc(OC)c(CN4CCC(CN5CCC6(CC5)CN(c5ccc7c(c5)CN(C5CCC(=O)NC5=O)C7=O)C6)CC4)c(OC)c3)cn(C)c(=O)c2C1 (centres unmarked) [Compound D56]
	< 10	CNC(=S)N1CCc2c(-c3cc(OC)c(CN4CCC(CCN5CCN(c6ccc7c(c6)CN(C6CCC(=O)NC6=O)C7=O)CC5)CC4)c(OC)c3)cn(C)c(=O)c2C1 (centres unmarked) [Compound D58]
